# Experimental data published in patent US7465740B2, “2-heteroaryl-pyrazolo-[4,3-e]-1,2,4-triazolo-[1,5-c]-pyrimidine adenosine A2a receptor antagonists” (Schering Corporation, priority 2005, dated 2008).
# pKi: −log10 of the molar value.
# Tests used:
# [1] = target: T1, Human A2a Adenosine Receptor (Homo sapiens, UniProt P29274); test: Human adenosine A2a receptor competition binding assay; conditions: [3H]-SCH 58261 displacement, human A2a membranes
# T1 construct: purchased Receptor Biology, Inc., Beltsville, Md; RB-HA2a
# T1 sequence (P29274 whole entry): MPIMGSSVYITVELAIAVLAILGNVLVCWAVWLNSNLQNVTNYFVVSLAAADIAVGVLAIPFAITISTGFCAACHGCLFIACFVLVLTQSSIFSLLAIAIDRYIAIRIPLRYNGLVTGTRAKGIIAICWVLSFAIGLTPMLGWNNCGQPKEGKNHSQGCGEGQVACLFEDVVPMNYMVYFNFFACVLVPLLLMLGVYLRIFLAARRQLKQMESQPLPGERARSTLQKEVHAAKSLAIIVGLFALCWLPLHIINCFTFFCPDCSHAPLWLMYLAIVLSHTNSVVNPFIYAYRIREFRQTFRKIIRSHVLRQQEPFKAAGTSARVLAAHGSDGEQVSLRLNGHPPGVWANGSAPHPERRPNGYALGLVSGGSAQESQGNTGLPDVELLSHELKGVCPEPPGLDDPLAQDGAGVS
# Procedure: (§1) Human Adenosine A2a and A1 Receitor Competition Binding Assay Protocol Membrane Sources:
# A2a: Human A2a Adenosine Receptor membranes, Catalog #RB-HA2a, Receptor Biology, Inc., Beltsville, Md. Dilute to 17 μg/100 μl in membrane dilution buffer (see below).
# (§2) Membrane dilution buffer: Dulbecco's Phosphate Buffered Saline (Gibco/BRL)+10 mM MgCl2.
# (§3) Compound Dilution Buffer: Dulbecco's Phosphate Buffered Saline (Gibco/BRL)+10 mM MgCl2 supplemented with 1.6 mg/ml methyl cellulose and 16% DMSO. Prepared fresh daily.
# A2a: [3H]-SCH 58261, custom synthesis, AmershamPharmacia Biotech, Piscataway, N.J. Stock is prepared at 1 nM in membrane dilution buffer. Final assay concentration is 0.5 nM.
# A2a: To determine non-specific binding, add 100 nM CGS 15923 (RBI, Natick, Mass.). Working stock is prepared at 400 nM in compound dilution buffer.
# (§4) Prepare 1 mM stock solutions of compounds in 100% DMSO. Dilute in compound dilution buffer. Test at 10 concentrations ranging from 3 μM to 30 pM. Prepare working solutions at 4× final concentration in compound dilution buffer.
# (§5) Perform assays in deep well 96 well plates. Total assay volume is 200 μl. Add 50 μl compound dilution buffer (total ligand binding) or 50 μl CGS 15923 working solution (A2a non-specific binding) or 50 μl NECA working solution (A1 non-specific binding) or 50 μl of drug working solution. Add 50 μl ligand stock ([3H]-SCH 58261 for A2a, [3H]-DPCPX for A1). […]
# A1 receptor = target: T2, A1 receptor (Homo sapiens, UniProt P30542); test: Human adenosine A1 receptor competition binding assay (for selectivity); conditions: A1/A2a Ki ratio
# T2 sequence (P30542 1-326): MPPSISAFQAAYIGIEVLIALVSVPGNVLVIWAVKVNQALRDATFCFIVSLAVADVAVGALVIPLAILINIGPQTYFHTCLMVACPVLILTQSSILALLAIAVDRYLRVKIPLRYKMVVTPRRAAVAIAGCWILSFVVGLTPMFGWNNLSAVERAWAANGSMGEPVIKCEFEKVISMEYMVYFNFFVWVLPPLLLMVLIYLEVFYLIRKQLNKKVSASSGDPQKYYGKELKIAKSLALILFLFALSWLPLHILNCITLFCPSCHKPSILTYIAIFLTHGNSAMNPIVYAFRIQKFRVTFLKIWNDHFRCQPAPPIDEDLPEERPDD
# Procedure: as §1, §2, §3
# A1: [3H]-DPCPX, Amersham Pharmacia Biotech, Piscataway, N.J. Stock is prepared at 2 nM in membrane dilution buffer. Final assay concentration is 1 nM.
# A1: To determine non-specific binding, add 100 μM NECA (RBI, Natick, Mass.). Working stock is prepared at 400 μM in compound dilution buffer.
# as §4
# as §5, with “A1). Add 100 μl of diluted membranes containing the appropriate receptor. Mix. Incubate at room temperature for 90 minutes.” for “A1).”
# Selectivity is determined by dividing Ki for A1 receptor by Ki for A2a receptor. […]
pKi [1],selectivity (Ki for A1 receptor divided by Ki for A2a receptor) (A1 receptor),Compound
9.70,,Cc1nc(-c2ccc(F)c(N3CCN(CCn4ncc5c4nc(N)n4nc(-c6cnccn6)nc54)CC3)c2)co1 [Example 1]
,above 9000,Cc1nccnc1-c1nc2c3cnn(CCN4CCN(c5cc(-c6ncco6)ccc5F)CC4)c3nc(N)n2n1 [Example 2-28]
